# Laboratory results published in patent US10934274B2, “Quinoline derivatives as TAM RTK inhibitors” (Qurient Co., Ltd., priority 2015, dated 2021).
# What was measured:
# Mer = target: T1, Mer (Homo sapiens, UniProt Q12866); test: LanthaScreen Eu kinase binding assay, Mer; conditions: Tracer 236
# T1 construct: purchased Life Technologies
# T1 sequence (Q12866 21-999): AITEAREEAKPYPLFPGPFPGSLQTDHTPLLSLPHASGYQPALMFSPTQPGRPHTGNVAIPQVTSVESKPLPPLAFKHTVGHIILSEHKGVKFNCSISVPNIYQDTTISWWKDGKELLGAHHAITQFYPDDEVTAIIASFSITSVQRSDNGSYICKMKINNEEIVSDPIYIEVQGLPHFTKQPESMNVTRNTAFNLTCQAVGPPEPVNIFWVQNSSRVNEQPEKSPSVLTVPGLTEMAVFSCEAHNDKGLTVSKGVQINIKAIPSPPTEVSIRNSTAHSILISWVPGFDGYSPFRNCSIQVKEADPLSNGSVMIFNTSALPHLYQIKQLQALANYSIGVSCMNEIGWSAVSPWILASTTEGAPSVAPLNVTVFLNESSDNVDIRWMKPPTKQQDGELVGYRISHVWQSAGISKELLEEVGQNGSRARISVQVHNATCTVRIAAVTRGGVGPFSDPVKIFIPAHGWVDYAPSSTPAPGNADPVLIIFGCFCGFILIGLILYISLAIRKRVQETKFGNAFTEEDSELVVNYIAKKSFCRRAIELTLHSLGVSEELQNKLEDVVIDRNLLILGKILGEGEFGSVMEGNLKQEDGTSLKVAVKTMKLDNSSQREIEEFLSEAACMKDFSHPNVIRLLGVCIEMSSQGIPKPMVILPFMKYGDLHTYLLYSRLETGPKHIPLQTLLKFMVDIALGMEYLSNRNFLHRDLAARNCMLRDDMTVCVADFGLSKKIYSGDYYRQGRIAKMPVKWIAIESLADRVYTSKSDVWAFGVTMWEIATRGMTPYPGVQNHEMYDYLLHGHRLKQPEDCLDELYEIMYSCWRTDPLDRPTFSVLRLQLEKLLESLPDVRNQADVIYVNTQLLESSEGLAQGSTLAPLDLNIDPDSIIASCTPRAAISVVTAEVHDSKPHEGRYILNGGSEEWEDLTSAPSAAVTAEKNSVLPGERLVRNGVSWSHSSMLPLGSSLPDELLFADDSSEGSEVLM
# Met = target: T2, Met (Homo sapiens, UniProt P08581); test: LanthaScreen Eu kinase binding assay, Met; conditions: Tracer 236, read-out: cMet kinase binding activity (Kd)
# T2 construct: purchased Life Technologies
# T2 sequence (P08581 25-1390): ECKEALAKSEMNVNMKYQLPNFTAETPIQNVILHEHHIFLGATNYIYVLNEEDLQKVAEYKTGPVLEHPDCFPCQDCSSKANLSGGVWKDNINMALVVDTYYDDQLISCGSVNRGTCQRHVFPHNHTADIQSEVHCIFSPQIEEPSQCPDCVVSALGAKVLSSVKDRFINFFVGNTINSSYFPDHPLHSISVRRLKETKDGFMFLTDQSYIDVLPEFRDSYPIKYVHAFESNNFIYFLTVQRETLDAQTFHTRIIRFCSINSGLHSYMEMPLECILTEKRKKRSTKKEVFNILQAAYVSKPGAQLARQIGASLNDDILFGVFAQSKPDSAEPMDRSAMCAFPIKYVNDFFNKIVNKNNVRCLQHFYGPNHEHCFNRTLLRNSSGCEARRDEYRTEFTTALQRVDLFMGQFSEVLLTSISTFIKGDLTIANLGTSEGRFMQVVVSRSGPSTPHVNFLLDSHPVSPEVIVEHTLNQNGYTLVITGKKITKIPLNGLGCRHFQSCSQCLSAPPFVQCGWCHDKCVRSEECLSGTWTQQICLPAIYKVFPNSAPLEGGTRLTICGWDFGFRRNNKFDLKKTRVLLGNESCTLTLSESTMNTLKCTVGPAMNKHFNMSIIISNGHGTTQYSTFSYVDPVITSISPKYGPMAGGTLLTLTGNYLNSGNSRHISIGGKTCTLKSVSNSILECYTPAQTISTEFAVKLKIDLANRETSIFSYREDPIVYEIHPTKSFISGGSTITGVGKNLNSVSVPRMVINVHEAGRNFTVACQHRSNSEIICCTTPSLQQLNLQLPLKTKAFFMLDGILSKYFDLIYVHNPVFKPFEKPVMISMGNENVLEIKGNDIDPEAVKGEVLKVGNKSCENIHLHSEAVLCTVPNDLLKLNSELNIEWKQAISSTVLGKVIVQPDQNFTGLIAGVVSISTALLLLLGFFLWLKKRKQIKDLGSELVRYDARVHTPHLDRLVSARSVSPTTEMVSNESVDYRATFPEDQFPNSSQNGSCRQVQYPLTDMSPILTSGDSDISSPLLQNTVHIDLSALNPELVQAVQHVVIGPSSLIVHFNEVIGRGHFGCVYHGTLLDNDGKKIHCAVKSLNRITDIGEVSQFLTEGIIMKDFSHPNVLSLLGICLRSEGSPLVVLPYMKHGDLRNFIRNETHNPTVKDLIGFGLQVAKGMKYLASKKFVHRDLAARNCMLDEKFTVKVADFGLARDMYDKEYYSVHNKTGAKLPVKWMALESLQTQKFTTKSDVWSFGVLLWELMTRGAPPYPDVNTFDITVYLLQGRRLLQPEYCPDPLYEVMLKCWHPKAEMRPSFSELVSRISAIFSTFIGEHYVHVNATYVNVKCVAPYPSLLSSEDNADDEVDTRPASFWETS
# Axl = target: T3, Axl (Homo sapiens, UniProt P30530); test: LanthaScreen Eu kinase binding assay, Axl; conditions: Tracer 236
# T3 construct: purchased Life Technologies
# T3 sequence (P30530 26-894): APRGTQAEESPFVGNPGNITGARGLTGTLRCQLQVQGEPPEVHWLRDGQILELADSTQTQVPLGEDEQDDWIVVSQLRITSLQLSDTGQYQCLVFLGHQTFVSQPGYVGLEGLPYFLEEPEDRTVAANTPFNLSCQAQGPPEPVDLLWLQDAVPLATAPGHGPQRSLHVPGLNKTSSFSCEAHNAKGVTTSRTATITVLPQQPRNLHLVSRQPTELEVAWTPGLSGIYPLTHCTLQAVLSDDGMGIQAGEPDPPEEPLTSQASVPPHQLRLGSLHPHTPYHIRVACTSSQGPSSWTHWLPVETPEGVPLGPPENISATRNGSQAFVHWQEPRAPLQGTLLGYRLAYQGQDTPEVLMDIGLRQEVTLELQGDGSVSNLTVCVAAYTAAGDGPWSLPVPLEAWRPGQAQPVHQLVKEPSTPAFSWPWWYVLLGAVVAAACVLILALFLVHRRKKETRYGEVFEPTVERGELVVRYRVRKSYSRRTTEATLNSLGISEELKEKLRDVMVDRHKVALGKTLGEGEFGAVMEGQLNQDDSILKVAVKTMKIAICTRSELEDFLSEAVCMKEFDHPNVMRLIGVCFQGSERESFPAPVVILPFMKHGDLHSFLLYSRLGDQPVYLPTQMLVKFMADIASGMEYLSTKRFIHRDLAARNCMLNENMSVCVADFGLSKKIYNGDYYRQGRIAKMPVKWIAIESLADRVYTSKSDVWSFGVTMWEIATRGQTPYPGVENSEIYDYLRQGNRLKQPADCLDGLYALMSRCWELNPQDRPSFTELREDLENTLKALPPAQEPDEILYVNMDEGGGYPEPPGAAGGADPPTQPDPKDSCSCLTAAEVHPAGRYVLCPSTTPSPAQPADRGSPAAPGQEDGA
Kd (Mer),Kd (Met),Kd (Axl),Structure (SMILES)
< 0.1 µM,< 0.1 µM,< 0.1 µM,CCOc1cn(-c2ncc(Cl)cc2C#N)nc1C(=O)Nc1ccc(Oc2ccnc3cc(OC)c(OC)cc23)cn1 [Compound 133]
< 0.1 µM,< 0.1 µM,< 0.1 µM,CCOc1cn(-c2cnc(N)nc2)nc1C(=O)Nc1ccc(Oc2ccnc3cc(OC)c(OC)cc23)c(F)c1 [Compound 141]
< 0.1 µM,< 0.1 µM,< 0.1 µM,CCOc1cn(-c2cnc(OC)nc2)nc1C(=O)Nc1ccc(Oc2ccnc3cc(OC)c(OC)cc23)cn1 [Compound 148]
< 0.1 µM,< 0.1 µM,< 0.1 µM,CCOc1cn(-c2cncnc2C)nc1C(=O)Nc1ccc(Oc2ccnc3cc(OC)c(OC)cc23)cn1 [Compound 149]
< 0.1 µM,< 0.1 µM,< 0.1 µM,CCOc1cn(-c2cnccc2C)nc1C(=O)Nc1ccc(Oc2ccnc3cc(OC)c(OC)cc23)cc1F [Compound 151]
< 0.1 µM,< 0.1 µM,< 0.1 µM,CCOc1cn(-c2cnc(C)cn2)nc1C(=O)Nc1ccc(Oc2ccnc3cc(OC)c(OC)cc23)cn1 [Compound 160]
< 0.1 µM,< 0.1 µM,< 0.1 µM,CCOc1cn(-c2noc(C)n2)nc1C(=O)Nc1ccc(Oc2ccnc3cc(OC)c(OC)cc23)cn1 [Compound 161]
< 0.1 µM,< 0.1 µM,< 0.1 µM,CCOc1cn(-c2nccnc2C(F)(F)F)nc1C(=O)Nc1ccc(Oc2ccnc3cc(OC)c(OC)cc23)cn1 [Compound 162]
< 0.1 µM,< 0.1 µM,< 0.1 µM,CCOc1cn(-c2ncn(C)n2)nc1C(=O)Nc1ccc(Oc2ccnc3cc(OC)c(OC)cc23)cn1 [Compound 165]
< 0.1 µM,< 0.1 µM,< 0.1 µM,CCOc1cn(-c2cncnc2C2CC2)nc1C(=O)Nc1ccc(Oc2ccnc3cc(OC)c(OC)cc23)cn1 [Compound 167]
< 0.1 µM,< 0.1 µM,< 0.1 µM,CCOc1cn(-c2nc[nH]n2)nc1C(=O)Nc1ccc(Oc2ccnc3cc(OC)c(OC)cc23)cn1 [Compound 168]
< 0.1 µM,≥ 1 µM,< 0.1 µM,CCOc1cn(-c2cnc(Cl)cn2)nc1C(=O)Nc1ccc(Oc2ccnc3cc(OC)c(OC)cc23)cn1 [Compound 169]
< 0.1 µM,< 0.1 µM,< 0.1 µM,CCOc1cn(-c2cnccc2C(F)(F)F)nc1C(=O)Nc1ccc(Oc2ccnc3cc(OC)c(OC)cc23)cn1 [Compound 170]
< 0.1 µM,< 0.1 µM,< 0.1 µM,CCOc1cn(-c2nccnc2Cl)nc1C(=O)Nc1ccc(Oc2ccnc3cc(OC)c(OC)cc23)cn1 [Compound 177]
< 0.1 µM,< 0.1 µM,< 0.1 µM,CCOc1cn(-c2cnccc2CO)nc1C(=O)Nc1ccc(Oc2ccnc3cc(OC)c(OC)cc23)cn1 [Compound 179]
< 0.1 µM,< 0.1 µM,< 0.1 µM,CCOc1cn(-c2cnccc2CCO)nc1C(=O)Nc1ccc(Oc2ccnc3cc(OC)c(OC)cc23)cn1 [Compound 181]
< 0.1 µM,< 0.1 µM,< 0.1 µM,CCOc1cn(-c2cnccc2C(C)=O)nc1C(=O)Nc1ccc(Oc2ccnc3cc(OC)c(OC)cc23)cn1 [Compound 182]
< 0.1 µM,< 0.1 µM,< 0.1 µM,CCOc1cn(-c2cnccc2Cl)nc1C(=O)Nc1ccc(Oc2ccnc3cc(OC)c(OC)cc23)cn1 [Compound 183]
< 0.1 µM,< 0.1 µM,< 0.1 µM,CCOc1cn(-c2cnccc2C(C)(C)O)nc1C(=O)Nc1ccc(Oc2ccnc3cc(OC)c(OC)cc23)cn1 [Compound 184]

Kd (Mer),Kd (Met),Kd (Axl),Structure (SMILES)
< 0.1 µM,< 0.1 µM,< 0.1 µM,COc1cc2nccc(Oc3ccc(NC(=O)c4nn(-c5cccnc5)cc4OCC(F)(F)F)nc3)c2cc1OC [Compound 185]
< 0.1 µM,0.1 to 1 µM,0.1 to 1 µM,COc1cc2nccc(Oc3ccc(NC(=O)c4nn(-c5ccc(OC(F)(F)F)cc5Cl)cc4OCC(F)(F)F)nc3)c2cc1OC [Compound 186]
< 0.1 µM,< 0.1 µM,< 0.1 µM,CCOc1cn(-c2c(C)ccnc2C)nc1C(=O)Nc1ccc(Oc2ccnc3cc(OC)c(OC)cc23)c(F)c1 [Compound 188]
< 0.1 µM,< 0.1 µM,< 0.1 µM,CCOc1cn(-c2ccc(OC(F)(F)F)cc2Cl)nc1C(=O)Nc1ccc(Oc2ccnc3cc(OC)c(OC)cc23)c(F)c1 [Compound 189]
< 0.1 µM,< 0.1 µM,< 0.1 µM,CCOc1cn(-c2nccnc2Cl)nc1C(=O)Nc1ccc(Oc2ccnc3cc(OC)c(OC)cc23)cc1F [Compound 190]
< 0.1 µM,< 0.1 µM,< 0.1 µM,CCOc1cn(-c2c(C)ccnc2C)nc1C(=O)Nc1ccc(Oc2ccnc3cc(OC)c(OC)cc23)cc1F [Compound 191]
< 0.1 µM,< 0.1 µM,< 0.1 µM,CCOc1cn(-c2ccc(OC(F)(F)F)cc2Cl)nc1C(=O)Nc1ccc(Oc2ccnc3cc(OC)c(OC)cc23)cc1F [Compound 192]
< 0.1 µM,< 0.1 µM,< 0.1 µM,CCOc1cn(-c2cnccc2Cl)nc1C(=O)Nc1ccc(Oc2ccnc3cc(OC)c(OC)cc23)c(F)c1 [Compound 193]
< 0.1 µM,< 0.1 µM,< 0.1 µM,CCOc1cn(-c2cnccc2Cl)nc1C(=O)Nc1ccc(Oc2ccnc3cc(OC)c(OC)cc23)cc1F [Compound 194]
< 0.1 µM,< 0.1 µM,< 0.1 µM,CCOc1cn(-c2cnccc2C(C)(C)O)nc1C(=O)Nc1ccc(Oc2ccnc3cc(OC)c(OC)cc23)c(F)c1 [Compound 195]
< 0.1 µM,< 0.1 µM,< 0.1 µM,CCOc1cn(-c2cnccc2C(F)(F)F)nc1C(=O)Nc1ccc(Oc2ccnc3cc(OC)c(OC)cc23)cc1F [Compound 196]
< 0.1 µM,< 0.1 µM,< 0.1 µM,CCOc1cn(-c2cnccc2C(C)(C)O)nc1C(=O)Nc1ccc(Oc2ccnc3cc(OC)c(OC)cc23)cc1F [Compound 197]
< 0.1 µM,< 0.1 µM,< 0.1 µM,CCOc1cn(-c2cnccc2C(F)(F)F)nc1C(=O)Nc1ccc(Oc2ccnc3cc(OC)c(OC)cc23)c(F)c1 [Compound 198]
< 0.1 µM,≥ 1 µM,< 0.1 µM,CCOc1cn(-c2cccnc2)nc1C(=O)Nc1ccc(Oc2ccnc3cc(OC)c(OC(F)(F)F)cc23)cn1 [Compound 199]
< 0.1 µM,< 0.1 µM,< 0.1 µM,CCOc1cn(-c2nccnc2C(C)(C)O)nc1C(=O)Nc1ccc(Oc2ccnc3cc(OC)c(OC)cc23)cn1 [Compound 200]
0.1 to 1 µM,0.1 to 1 µM,≥ 1 µM,CCOc1cn(-c2ccc(OC(F)(F)F)cc2Cl)nc1C(=O)Nc1ccc(Oc2ccnc3cc(OC)c(OC(F)(F)F)cc23)cn1 [Compound 201]
< 0.1 µM,< 0.1 µM,< 0.1 µM,COc1cc2nccc(Oc3ccc(NC(=O)c4nn(-c5ccc(F)cc5C)cc4OCC(F)(F)F)nc3)c2cc1OC [Compound 203]
< 0.1 µM,< 0.1 µM,< 0.1 µM,CCOc1cn(-c2cnccc2C(C)(O)CO)nc1C(=O)Nc1ccc(Oc2ccnc3cc(OC)c(OC)cc23)cn1 (stereo not drawn) [Compound 205]
